{"source": "patent US12264339B2", "about": "“Compositions and methods involving engineered P27” (THE REGENTS OF THE UNIVERSITY OF CALIFORNIA, priority 2018, dated 2025)", "key": {"[1]": {"tested_on": "Rb (771-928), FoxM1 (526-748), histone H1", "test": "32P-ATP kinase assay of protein complexes on substrates (FIG. 1A)", "type": "biochemical", "conditions": "0.5 μM complex, 20 μM substrate, 250 μM ATP, 30 minutes", "description": "The phosphorylation activity of Cdk4 in various complexes was tested using different substrates.\nThe substrates used in the kinase assays were the C-terminal domain of the retinoblastoma protein (Rb (771-928); SEQ ID NO: 62), the transactivation domain of FoxM1 (FoxM1 (526-748); SEQ ID NO: 64), and full-length histone H1 (SEQ ID NO: 65)."}, "[2]": {"test": "Steady-state kinetic assays, initial rate of phosphorylation vs ATP concentration (FIGS. 1B and 1C)", "type": "biochemical", "conditions": "summary of kinetic results, FIG. 1C"}}, "data": [{"substance": "Cdk4-CycD dimeric complex: Cdk4-CycD1 dimeric complex lacking p27; covers complexes (i) and (ii)", "values": [{"measurement": "phosphorylation activity toward substrates", "setting": "[1]", "value": "high phosphorylation activity specifically for Rb"}]}, {"substance": "engineered p27 with Y74E, Y88E, and Y89E-Cdk4-CycD1 trimeric complex: trimeric complex of p27 Y74E/Y88E/Y89E, Cdk4 and CycD1; covers complexes (vii) and (viii)", "values": [{"measurement": "ATP substrate capture", "setting": "[2]", "value": "enhances ATP substrate capture"}, {"measurement": "phosphorylation activity toward substrates", "setting": "[1]", "value": "greater activity toward FoxM1 and histone 1"}]}]}
